Data taken from ChEMBL document CHEMBL1201862, “PubChem BioAssay data set” (2004).
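Cultured in 96-well plates, cells were exposed to test compound for 48 hours across five concentrations. GI50: concentration for 50% inhibition of growth.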 Calls of active or inactive are those of the source. Cut-off read from the data, not from the text of the source: active = GI50 up to about 1.1 µM and inactive = higher.

Legend:
Assay in all cases: NCI tumour cell line growth inhibition, 48 h
786-0 = tested on: 786-0
A549 = tested on: A549
ACHN = tested on: ACHN
BT-549 = tested on: BT-549
HOP-62 = tested on: HOP-62
Hs-578T = tested on: Hs-578T
KM12 = tested on: KM12
LOX IMVI = tested on: LOX IMVI
MCF7 = tested on: MCF7
MDA-N = tested on: MDA-N
NCI-H23 = tested on: NCI-H23
NCI-H522 = tested on: NCI-H522
NCI/ADR-RES = tested on: NCI/ADR-RES
OVCAR-5 = tested on: OVCAR-5
SK-OV-3 = tested on: SK-OV-3
UO-31 = tested on: UO-31
SK-MEL-28 = tested on: SK-MEL-28
T47D = tested on: T47D
TK-10 = tested on: TK-10

COc1cc(C2CC(C)(N3CCOCC3)Oc3cc4c(cc32)OCO4)cc(OC)c1OC (centres undefined)
GI50 (786-0): 0.157 µM (active)
GI50 (A549): 2.14 µM (inactive)
GI50 (ACHN): 0.243 µM (active)
GI50 (BT-549): > 100 µM (inactive)
GI50 (HOP-62): 0.27 µM (active)
GI50 (Hs-578T): 0.191 µM (active)
GI50 (KM12): 0.0634 µM (active)
GI50 (LOX IMVI): 0.136 µM (active)
GI50 (MCF7): 0.458 µM (active)
GI50 (MDA-N): 0.0452 µM (active)
GI50 (NCI-H23): 0.209 µM (active)
GI50 (NCI-H522): 0.226 µM (active)
GI50 (NCI/ADR-RES): 0.2 µM (active)
GI50 (OVCAR-5): > 100 µM (inactive)
GI50 (SK-OV-3): 0.482 µM (active)
GI50 (UO-31): 12.2 µM (inactive)

CCOP(=O)(OCC)C1CC(n2cc(C)c(=O)[nH]c2=O)OC1CO (centres undefined)
GI50 (786-0): > 100 µM (inactive)
GI50 (A549): > 100 µM (inactive)
GI50 (ACHN): > 100 µM (inactive)
GI50 (BT-549): > 100 µM (inactive)
GI50 (HOP-62): > 100 µM (inactive)
GI50 (Hs-578T): > 100 µM (inactive)
GI50 (KM12): > 100 µM (inactive)
GI50 (LOX IMVI): > 100 µM (inactive)
GI50 (MCF7): > 100 µM (inactive)
GI50 (MDA-N): > 100 µM (inactive)
GI50 (NCI-H23): 99.1 µM (inactive)
GI50 (NCI-H522): 83.8 µM (inactive)
GI50 (OVCAR-5): 83.4 µM (inactive)
GI50 (SK-MEL-28): > 100 µM (inactive)
GI50 (T47D): > 100 µM (inactive)
GI50 (TK-10): > 100 µM (inactive)
GI50 (UO-31): > 100 µM (inactive)

CCOC(=O)c1cc(=O)oc2c1N(C)c1ncccc1N2
GI50 (786-0): > 100 µM (inactive)
GI50 (A549): > 100 µM (inactive)
GI50 (ACHN): 86.9 µM (inactive)
GI50 (BT-549): > 100 µM (inactive)
GI50 (HOP-62): > 100 µM (inactive)
GI50 (Hs-578T): > 100 µM (inactive)
GI50 (KM12): > 100 µM (inactive)
GI50 (LOX IMVI): > 100 µM (inactive)
GI50 (MCF7): > 100 µM (inactive)
GI50 (MDA-N): > 100 µM (inactive)
GI50 (NCI-H23): > 100 µM (inactive)
GI50 (NCI/ADR-RES): > 100 µM (inactive)
GI50 (OVCAR-5): > 100 µM (inactive)
GI50 (SK-MEL-28): > 100 µM (inactive)
GI50 (SK-OV-3): > 100 µM (inactive)
GI50 (T47D): > 100 µM (inactive)
GI50 (TK-10): > 100 µM (inactive)
GI50 (UO-31): 50.9 µM (inactive)

CN1CCN(C(=S)N(C(=O)c2ccc(Cl)cc2)c2ccccc2)CC1
GI50 (786-0): > 100 µM (inactive)
GI50 (A549): > 100 µM (inactive)
GI50 (ACHN): > 100 µM (inactive)
GI50 (BT-549): > 100 µM (inactive)
GI50 (Hs-578T): 34.5 µM (inactive)
GI50 (KM12): > 100 µM (inactive)
GI50 (LOX IMVI): > 100 µM (inactive)
GI50 (MCF7): > 100 µM (inactive)
GI50 (MDA-N): > 100 µM (inactive)
GI50 (NCI-H23): > 100 µM (inactive)
GI50 (NCI-H522): > 100 µM (inactive)
GI50 (OVCAR-5): > 100 µM (inactive)
GI50 (SK-MEL-28): > 100 µM (inactive)
GI50 (T47D): > 100 µM (inactive)
GI50 (TK-10): > 100 µM (inactive)
GI50 (UO-31): > 100 µM (inactive)

O=C(NC(CO)Cc1ccc(Oc2cc(CC(CO)NC(=O)OCc3ccccc3)ccc2OC(=O)OCc2ccccc2)cc1)OCc1ccccc1 (centres undefined)
GI50 (786-0): 25.1 µM (inactive)
GI50 (A549): 11.6 µM (inactive)
GI50 (ACHN): 19.9 µM (inactive)
GI50 (BT-549): 11.7 µM (inactive)
GI50 (HOP-62): 20.2 µM (inactive)
GI50 (Hs-578T): 5.97 µM (inactive)
GI50 (KM12): 17.1 µM (inactive)
GI50 (LOX IMVI): 12.1 µM (inactive)
GI50 (MCF7): 11.8 µM (inactive)
GI50 (MDA-N): 16.6 µM (inactive)
GI50 (NCI-H23): 16.1 µM (inactive)
GI50 (NCI/ADR-RES): 28.4 µM (inactive)
GI50 (OVCAR-5): 24.4 µM (inactive)
GI50 (SK-MEL-28): 17.9 µM (inactive)
GI50 (SK-OV-3): 21.3 µM (inactive)
GI50 (T47D): 5.18 µM (inactive)
GI50 (TK-10): 20.7 µM (inactive)
GI50 (UO-31): 18.2 µM (inactive)

Nn1c(=O)[nH]c2ncn(Cc3ccccc3)c2c1=O
GI50 (786-0): > 100 µM (inactive)
GI50 (A549): > 100 µM (inactive)
GI50 (ACHN): > 100 µM (inactive)
GI50 (BT-549): > 100 µM (inactive)
GI50 (HOP-62): > 100 µM (inactive)
GI50 (Hs-578T): > 100 µM (inactive)
GI50 (KM12): > 100 µM (inactive)
GI50 (MCF7): > 100 µM (inactive)
GI50 (MDA-N): > 100 µM (inactive)
GI50 (NCI-H23): > 100 µM (inactive)
GI50 (NCI-H522): > 100 µM (inactive)
GI50 (NCI/ADR-RES): > 100 µM (inactive)
GI50 (OVCAR-5): > 100 µM (inactive)
GI50 (SK-MEL-28): > 100 µM (inactive)
GI50 (SK-OV-3): > 100 µM (inactive)
GI50 (T47D): > 100 µM (inactive)
GI50 (TK-10): > 100 µM (inactive)
GI50 (UO-31): > 100 µM (inactive)

COCCc1c(C)c(C#N)c2n(C)c3ccccc3n2c1=O
GI50 (786-0): > 10 µM (inactive)
GI50 (A549): > 10 µM (inactive)
GI50 (ACHN): > 10 µM (inactive)
GI50 (BT-549): > 10 µM (inactive)
GI50 (HOP-62): > 10 µM (inactive)
GI50 (Hs-578T): > 10 µM (inactive)
GI50 (KM12): > 10 µM (inactive)
GI50 (LOX IMVI): > 10 µM (inactive)
GI50 (MCF7): > 10 µM (inactive)
GI50 (MDA-N): > 10 µM (inactive)
GI50 (NCI-H23): > 10 µM (inactive)
GI50 (NCI-H522): > 10 µM (inactive)
GI50 (NCI/ADR-RES): > 10 µM (inactive)
GI50 (OVCAR-5): > 10 µM (inactive)
GI50 (SK-MEL-28): > 10 µM (inactive)
GI50 (SK-OV-3): > 10 µM (inactive)
GI50 (T47D): > 10 µM (inactive)
GI50 (TK-10): > 10 µM (inactive)

CCN(CC)CCOc1ccc(N2Cc3ccccc3C2=O)cc1
GI50 (786-0): > 10 µM (inactive)
GI50 (A549): > 10 µM (inactive)
GI50 (ACHN): > 10 µM (inactive)
GI50 (BT-549): > 10 µM (inactive)
GI50 (HOP-62): > 10 µM (inactive)
GI50 (Hs-578T): > 10 µM (inactive)
GI50 (LOX IMVI): > 10 µM (inactive)
GI50 (MCF7): > 10 µM (inactive)
GI50 (MDA-N): > 10 µM (inactive)
GI50 (NCI-H23): > 10 µM (inactive)
GI50 (NCI-H522): > 10 µM (inactive)
GI50 (NCI/ADR-RES): > 10 µM (inactive)
GI50 (OVCAR-5): > 10 µM (inactive)
GI50 (SK-MEL-28): > 10 µM (inactive)
GI50 (SK-OV-3): > 10 µM (inactive)
GI50 (T47D): > 10 µM (inactive)
GI50 (TK-10): > 10 µM (inactive)
GI50 (UO-31): > 10 µM (inactive)
